The values that follow come from patent US10087219B2, “Human alpha-defensin 5 variant and uses thereof” (priority 2016, dated 2018).

Series [1] deals with THP-1 cells. As to the kind of experiment: Release of IL-1β mature body from LPS-stimulated THP-1 macrophages (immunoblotting). To be noted: LPS 100 ng/ml 3 h, FIG. 4. Type of series: cell-based. The method, then:
THP-1 cells were cultured with RPMI-1640 culture media added with 10% fetal calf serum, and then inoculated on 24-well plate during logarithmic phase, 10^6 cells per well, added with PMA with final concentration of 100 nM for stimulating for 12 h so that cell adhered wall.
Media was exchanged with […] added with 10% fetal calf serum, and stood for 24 hours.
The following groups were set: blank group, LPS stimulation group, LPS+5 mM ATP group (positive control group), LPS+HD-5 group, LPS+HD-5Myr group, LPS+HD-5Lau group. 100 ng/ml lipopolysaccharide (LPS) was used or not to perform stimulation for 3 h, then gently washed twice with 1640 culture media, and then added or not with HD-5Myr or HD-5Lau with final concentration of 10 μg/ml and 20 μg/ml, or ATP with final concentration of 5 mM, or HD-5 with final concentration of 100 μg/ml and 200 μg/ml; and supernatant of each group was collected.
The proteins in supernatant in same volume were concentrated, lysed with protein lysis solution, and then release conditions of IL-1β mature body for different groups were compared by immunoblotting method.
Background: In western blotting, separated proteins are transferred to a membrane and probed.

For series [2], the system named is human red cells. As to the kind of experiment: Hemolysis of human red cells. To be noted: 25 μg/ml; 4% human red cells, 37° C., 1 h; 10% Triton X-100 = 100% hemolysis; FIG. 3. The class given is cell-based. On the procedure: The hemolysis effects of antibacterial peptide HD-5 as well as its variants HD-5Myr and HD-5Lau on human red cell were measured.
Fresh human blood sample was collected, heparinized then centrifuged to take red cell layer;
washed with PBS for 3 times;
to EP tube, HD-5 and its variants with final concentrations of 50 μg/ml and 25 μg/ml were added separately; the positive control was added with 10% Triton X-100 in same volume, while the negative control was added with PBS in same volume.
4% human red cells were added separately, incubated at 37° C. for 1 h;
centrifuged, supernatant in same volume was taken and placed in 96-well plate, OD value at 540 nm was measured; by using the positive control as 100% hemolysis, and using the negative control as 0% hemolysis, the hemolysis rate for each well was calculated: Red cell hemolysis rate %=Test well OD value−negative control well OD valuePositive control well OD value−negative control OD×100%

Series [3] concerns S. aureus ATCC 25923. The series can be described thus: Antibacterial activity (LD90, optical density growth kinetics) against S. aureus ATCC 25923. The class given is cell-based, Staphylococcus aureus. To be noted: concentration required for killing 90% bacteria, 2 h incubation at 37° C. On the procedure: (§1) According to measurement of antibacterial activity of antibacterial peptides, the antibacterial potencies of the variants HD-5Myr, HD-Lau and MyrHD-5 of HD-5 as synthesized in Example 2 as well as natural HD-5 were compared.
(§2) The experiments were carried out according to the method for detecting antibacterial activity of antibacterial peptide as reported by Ericksen et al in 2005 (Ericksen B, et al., Antibacterial activity and specificity of the six human {alpha}-defensins. Antimicrob Agents Chemother, 2005).
(§3) Bacteria were inoculated on LB agar plate, and placed in 37° C. constant temperature incubator until bacterial colonies grew. […] Optical density at 600 nm was measured with ELIASA, 1 OD600=4×10^8 CFU/ml, and the bacteria to be tested were diluted with sterile water to 2×10^6 CFU/ml.
(§4) To a sterile 96-plate, 50 μl of sterile water was added to each well, and then A1 well was added with an antibacterial peptide HD-5 sample diluted to a certain concentration. […] Optical density values at 600 nm were measured every 5 minutes in ELIASA at constant temperature of 37° C.
(§5) The measured optical density value minus the optical density value at time 0, and logarithm thereof was taken. […] According to this linear rule, bactericidal rates for different groups were calculated. […]

The nature of series [4]: Micellar structure formation by transmission electron microscopy. Type of series: physicochemical. To be noted: uranyl acetate staining, FIG. 1. An excerpt: Small amounts of HD-5, HD-5Myr and HD-5Lau samples were taken and dropped on copper grid used for electron microscope, excessive samples were sucked out with filter paper, after being dried at room temperature, uranyl acetate was used for staining.

Series [5] relates to E. coli ATCC 25922. The series can be described thus: Antibacterial activity (LD90, optical density growth kinetics) against E. coli ATCC 25922. To be noted: concentration required for killing 90% bacteria, 2 h incubation at 37° C. Type of series: cell-based, Escherichia coli. The method, then:
as §1, §2, §3, §4, §5

Series [6] deals with MRSA-1. As to the kind of experiment: Antibacterial activity (LD90, optical density growth kinetics) against MRSA-1. The class given is cell-based, methicillin-resistant Staphylococcus aureus. The conditions noted are these: for LD90: MRSA-1 isolated in clinic, concentration required for killing 90% bacteria, 2 h incubation at 37° C. On the procedure: as §1, §2
Bacteria were inoculated on LB agar plate, and placed in 37° C. constant temperature incubator until bacterial colonies grew. Single colony was picked out, inoculated in 5 ml of LB culture media, and shake cultured at constant temperature of 37° C. for 4-6 h. It was then washed with sterile water twice. Optical density at 600 nm was measured with ELIASA, 1 OD600=4×10^8 CFU/ml, and the bacteria to be tested were diluted with sterile water to 2×10^6 CFU/ml.
To a sterile 96-plate, 50 μl of sterile water was added to each well, and then A1 well was added with an antibacterial peptide HD-5 sample diluted to a certain concentration. After being mixed evenly, 50 μl was taken therefrom and added to A2 well, thereby being diluted in multiple proportion manner in order, and 50 μl was sucked out from A6 well and discarded. By using the same method, MyrHD-5, HD-5Myr and HD-5Lau samples were diluted. The control well was 50 μl sterile water. Then, to each well, 50 μl of 2×10^6 CFU/ml bacteria was added, and shake cultured at constant temperature of 37° C. for 2 h. Then, 100 μl of LB culture media with double concentration was added separately. Optical density values at 600 nm were measured every 5 minutes in ELIASA at constant temperature of 37° C.
as §5

Positions of bridges follow the written chain, without caps; N, C: chain ends. Residues, ends and D or L forms follow the SMILES beside them. No end group written: not given here. *: point of attachment. Myristoyl = CCCCCCCCCCCCCC(=O)*; Lauroyl = CCCCCCCCCCCC(=O)*

Regarding `Nc1ncnc2c1ncn2[C@@H]1O[C@H](COP(=O)(O)OP(=O)(O)OP(=O)(O)O)[C@@H](O)[C@H]1O` [ATP], the “Release of IL-1β mature body” value in series [1] (then 5 mM ATP (positive control)) was “exhibited release of IL-1β mature body”.
As to `CCCCCCCCCCCC(=O)NCCCC[C@H](NC(=O)CNC(=O)[C@H](CCCNC(=N)N)NC(=O)[C@@H]1CSSC[C@H](NC(=O)[C@@H](NC(=O)[C@H](C)N)[C@@H](C)O)C(=O)N[C@@H](Cc2ccc(O)cc2)C(=O)N[C@H]2CSSC[C@@H]3NC(=O)[C@H](C(C)C)NC(=O)CNC(=O)[C@H](CO)NC(=O)[C@H](CC(C)C)NC(=O)[C@H](CO)NC(=O)[C@H](CCC(=O)O)NC(=O)[C@H](CCCNC(=N)N)NC(=O)[C@H]([C@@H](C)O)NC(=O)[C@H](C)NC(=O)[C@H](CSSC[C@H](NC(=O)[C@H](CC(C)C)NC(=O)[C@H](CCCNC(=N)N)NC(=O)[C@H](Cc4ccc(O)cc4)NC(=O)[C@H](CC(C)C)NC(=O)[C@H](CCCNC(=N)N)NC(=O)CNC(=O)[C@H](CO)NC(=O)[C@H]([C@@H](C)CC)NC(=O)[C@H](CCC(=O)O)NC3=O)C(=O)N1)NC(=O)[C@H](CCCNC(=N)N)NC(=O)CNC(=O)[C@H]([C@@H](C)O)NC(=O)[C@H](CCCNC(=N)N)NC2=O)C(N)=O` [HD-5Lau] (H-ATCYCRTGRCATRESLSGVCEISGRLYRLCCRGK(Lauroyl)-NH2; disulfide 3-31, 5-20, 10-30), in series [2], the hemolysis rate came to 2.24%.
The molecule `CCCCCCCCCCCCCC(=O)NCCCC[C@H](NC(=O)CNC(=O)[C@H](CCCNC(=N)N)NC(=O)[C@@H]1CSSC[C@H](NC(=O)[C@@H](NC(=O)[C@H](C)N)[C@@H](C)O)C(=O)N[C@@H](Cc2ccc(O)cc2)C(=O)N[C@H]2CSSC[C@@H]3NC(=O)[C@H](C(C)C)NC(=O)CNC(=O)[C@H](CO)NC(=O)[C@H](CC(C)C)NC(=O)[C@H](CO)NC(=O)[C@H](CCC(=O)O)NC(=O)[C@H](CCCNC(=N)N)NC(=O)[C@H]([C@@H](C)O)NC(=O)[C@H](C)NC(=O)[C@H](CSSC[C@H](NC(=O)[C@H](CC(C)C)NC(=O)[C@H](CCCNC(=N)N)NC(=O)[C@H](Cc4ccc(O)cc4)NC(=O)[C@H](CC(C)C)NC(=O)[C@H](CCCNC(=N)N)NC(=O)CNC(=O)[C@H](CO)NC(=O)[C@H]([C@@H](C)CC)NC(=O)[C@H](CCC(=O)O)NC3=O)C(=O)N1)NC(=O)[C@H](CCCNC(=N)N)NC(=O)CNC(=O)[C@H]([C@@H](C)O)NC(=O)[C@H](CCCNC(=N)N)NC2=O)C(N)=O` [HD-5Myr] (H-ATCYCRTGRCATRESLSGVCEISGRLYRLCCRGK(Myristoyl)-NH2; disulfide 3-31, 5-20, 10-30) gave a hemolysis rate in series [2] of 6.83%.
Take “Human defensin-5 (ATCYCRTGRCATRESLSGVCEISGRLYRLCCR; disulfide 10-30, 5-20, 3-31; listed as Homo sapiens) [HD-5, the modification template]”: the LD90 in series [3] is above 12.5 µg/mL; in series [5], 6.691 µg/mL; in series [6], 5.850 µg/mL. Further, the “Formation of micellar structure” value in series [4] is “micellar structure was not observed”. The “Release of IL-1β mature body” value in series [1] (then peptide at 100 μg/ml and 200 μg/ml) is on record as “could promote the release of IL-1β mature body”. The “LD90 against methicillin-resistant Staphylococcus aureus compared with LD90 against Staphylococcus aureus ATCC 25923” value in series [6] (MRSA versus S. aureus ATCC 25923) was “far lower”.
On to “MyrHD-5: 33-residue N-terminally modified HD-5 variant (SEQ ID NO: 3), Gly1 amino group linked to a myristoyl (Myristoyl-GATCYCRTGRCATRESLSGVCEISGRLYRLCCR; disulfide 11-31, 6-21, 4-32)”, for which the LD90 is 6.280 µg/mL in series [3], above 12.5 µg/mL in series [5] and 1.400 µg/mL in series [6].
